PubChem BioAssay AID1963835 (Molecular Pharmacology Branch, DTP, NCI, 2024)

System: 699152-130-R-J1-PDC complex spheroid viability
Assay: Anticancer human tumor 699152-130-R-J1-PDC patient-derived pancreatic carcinoma cell line growth inhibition [POLQ]
Conditions: for IC50: curve of first compound; for viability, T/C: stronger effect = lower value
Experimental: Multicellular complex tumor spheroid response to Polymerase (POL) inhibitors (novobiocin, ART-558, RP6685) in combination with a variety of drugs and investigational agents in selected tumor cell lines
The POL inhibitors (novobiocin, ART-558, and RP6685) were evaluated both individually and in combination with standard of care and investigational anticancer small molecules within a complex spheroid model of solid tumors. . Complex spheroids include a stromal component modeled by human endothelial cells (HUVEC) and fibroblasts modeled by human mesenchymal stem cells (MSCs). The concentration ranges selected for each drug and investigational agent were based upon clinically achievable concentrations if the clinical Cmax of the agent was known.
Compounds. The drugs and investigational agents: novobiocin (NSC847541), ART-558 (NSC835418), RP-6685 (NSC848927), peposertib (NSC802822), ceralasertib (NSC780249), elimusertib (NSC800525), camonsertib (NSC841442), AZD-1390 (NSC803789), olaparib (NSC753686), talazoparib (NSC767125), rucaparib (NSC756644), sotorasib (NSC818433), MRTX-1133 (NSC836407), SN-38 (NSC673596), topotecan (NSC609699), epotoside (NSC141540), doxorubicin (NSC123127), gemcitabine (NSC613327), 5-fluorouracil (NSC19893), paclitaxel (NSC125973), vemurafenib (NSC761431), MSA-2 (NSC828583), SN-011 (NSC837082), adavosertib (NSC754352), prexasertib (NSC758257), carboplatin (NSC241240) and oxaliplatin (NSC266046), were obtained from the National Cancer Institute (NCI) Developmental Therapeutics Program Chemical Repository (21). The FDA-approved anticancer drug set is available from the Developmental Therapeutics Program at https://dtp.cancer.gov/organization/dscb/obtaining/. […] The stock solutions were prepared in dimethyl sulfoxide (DMSO, Sigma-Aldrich, St. Louis, MO, cat. D2650), except for the platinum compounds which were prepared in saline (Quality Biological, Gaithersburg, MD, cat. 114-055-101), at 800-fold the tested concentration and stored at -70 degrees C prior to their use. All drugs and investigational agents were tested over a range starting from a high concentration at or near the clinical Cmax and decreasing in half-log increments. If the clinical Cmax for an agent had not been determined, the highest concentration tested was 10 microM, except for SN-38, which was tested at a high concentration of 1 microM.
Cell Culture. All cells were maintained in an incubator at 37 degrees C and 5% CO2 with 95% humidity. The PDC lines were cultured according to standard operating procedures established by the NCI PDMR (https://pdmr.cancer.gov). Table 3 of the manuscript, lists the cell lines along with the number of the three cell types plated to form the mct-spheroids and media for tumor cell growth. After thawing, all PDC lines, except 997537-175-T-J1-PDC and 415267-285-R-J2-PDC, were cultured in Matrigel-coated flasks prepared with a working solution of 1X Ham's F-12 nutrient mix, without supplementation (Thermo Fisher Scientific, cat. 11765054), 100 U/mL penicillin-streptomycin (Thermo Fisher Scientific, cat. 15140122), and 2.5% Matrigel (Corning Inc., Corning, NY, cat. 354248) for the first three passages. The two PDC lines 997537-175-T-J1-PDC and 415267-285-R-J2-PDC were cultured on uncoated flasks. The 857933-349-R-J2-PDC line was cultured in 6C/Colon 1B media containing advanced DMEM/F-12 (Thermo Fisher Scientific, cat. 12634028), 10 mM HEPES (Thermo Fisher Scientific, cat. 15630080), 1X GlutaMAX supplement (Thermo Fisher Scientific, cat. 35050061), 0.1 mg/mL primocin (InvivoGen, San Diego, CA, cat. ant-pm-2), 10% defined fetal bovine serum, heat inactivated (HyClone Laboratories Inc., Logan, UT, cat. SH30070.03HI), 50% L-WRN conditioned media (ATCC, cat. CRL-3276), 1.25 mM N-Acetyl-L-cysteine (Sigma-Aldrich, cat. A9165), 10 mM nicotinamide (Sigma-Aldrich, cat. N0636), 1X B-27 supplement (Thermo Fisher Scientific, cat. 17504044), 1X N-2 supplement (Thermo Fisher Scientific, cat. […]

[1] = second compound 0.0316 µM, first compound 0.0316 µM
[2] = second compound 0.0316 µM, first compound 0.1 µM
[3] = second compound 0.0316 µM, first compound 0.316 µM
[4] = second compound 0.0316 µM, first compound 1 µM
[5] = second compound 0.0316 µM, first compound 3.16 µM
[6] = second compound 0.0316 µM, first compound 10 µM
[7] = second compound 0.1 µM, first compound 0.0316 µM
[8] = second compound 0.1 µM, first compound 0.1 µM
[9] = second compound 0.1 µM, first compound 0.316 µM
[10] = second compound 0.1 µM, first compound 1 µM
[11] = second compound 0.1 µM, first compound 3.16 µM
[12] = second compound 0.1 µM, first compound 10 µM
[13] = second compound 0.316 µM, first compound 0.0316 µM
[14] = second compound 0.316 µM, first compound 0.1 µM
[15] = second compound 0.316 µM, first compound 0.316 µM
[16] = second compound 0.316 µM, first compound 1 µM
[17] = second compound 0.316 µM, first compound 3.16 µM
[18] = second compound 0.316 µM, first compound 10 µM
[19] = second compound 1 µM, first compound 0.0316 µM
[20] = second compound 1 µM, first compound 0.1 µM
[21] = second compound 1 µM, first compound 0.316 µM
[22] = second compound 1 µM, first compound 1 µM
[23] = second compound 1 µM, first compound 3.16 µM
[24] = second compound 1 µM, first compound 10 µM
[25] = second compound 3.16 µM, first compound 0.0316 µM
[26] = second compound 3.16 µM, first compound 0.1 µM
[27] = second compound 3.16 µM, first compound 0.316 µM
[28] = second compound 3.16 µM, first compound 1 µM
[29] = second compound 3.16 µM, first compound 3.16 µM
[30] = second compound 3.16 µM, first compound 10 µM
[31] = second compound 10 µM, first compound 0.0316 µM
[32] = second compound 10 µM, first compound 0.1 µM
[33] = second compound 10 µM, first compound 0.316 µM
[34] = second compound 10 µM, first compound 1 µM
[35] = second compound 10 µM, first compound 3.16 µM
[36] = second compound 10 µM, first compound 10 µM
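Also: spheroids exposed to agents for 7 days before viability reading.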
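For viability, T/C in this document: percent of DMSO vehicle control viability so 100% = vehicle and 0% = no viable signal.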

COc1cc(C2c3cc4c(cc3C(OC3OC5COC(C)OC5C(O)C3O)C3COC(=O)C23)OCO4)cc(OC)c1O (centres undefined) + Nc1ccc(C#CCN(C(=O)Cc2ncc(C(F)(F)F)cc2C(F)(F)F)c2ccc(F)cc2)nn1
IC50 (second compound 0.0316 µM): 9.72 µM | IC50 (second compound 0.1 µM): 5.57 µM | IC50 (second compound 0.316 µM): 3.86 µM | IC50 (second compound 1 µM): 4.26 µM | IC50 (second compound 3.16 µM): 6.31 µM | IC50 (second compound 10 µM): 8.26 µM | viability, T/C [1]: 85.2% | viability, T/C [2]: 84.2% | viability, T/C [3]: 79.5% | viability, T/C [4]: 76.3% | viability, T/C [5]: 53.9% | viability, T/C [6]: 50.1% | viability, T/C [7]: 105% | viability, T/C [8]: 89% | viability, T/C [9]: 77.9% | viability, T/C [10]: 70.5% | viability, T/C [11]: 52.5% | viability, T/C [12]: 44.9% | viability, T/C [13]: 108% | viability, T/C [14]: 90.6% | viability, T/C [15]: 79.8% | viability, T/C [16]: 69.1% | viability, T/C [17]: 48.1% | viability, T/C [18]: 41.2% | viability, T/C [19]: 92.2% | viability, T/C [20]: 81.9% | viability, T/C [21]: 78% | viability, T/C [22]: 74.9% | viability, T/C [23]: 49.6% | viability, T/C [24]: 48.8% | viability, T/C [25]: 103% | viability, T/C [26]: 85% | viability, T/C [27]: 81% | viability, T/C [28]: 69.2% | viability, T/C [29]: 53.1% | viability, T/C [30]: 46.8% | viability, T/C [31]: 115% | viability, T/C [32]: 85.6% | viability, T/C [33]: 89.4% | viability, T/C [34]: 65.8% | viability, T/C [35]: 53% | viability, T/C [36]: 50.7%

O=C(c1cc(Cc2n[nH]c(=O)c3ccccc23)ccc1F)N1CCN(C(=O)C2CC2)CC1 + Nc1ccc(C#CCN(C(=O)Cc2ncc(C(F)(F)F)cc2C(F)(F)F)c2ccc(F)cc2)nn1
IC50 (second compound 0.0316 µM): > 10 µM | IC50 (second compound 0.1 µM): > 10 µM | IC50 (second compound 0.316 µM): > 10 µM | IC50 (second compound 1 µM): > 10 µM | IC50 (second compound 3.16 µM): > 10 µM | IC50 (second compound 10 µM): > 10 µM | viability, T/C [1]: 88.9% | viability, T/C [2]: 99.8% | viability, T/C [3]: 81.6% | viability, T/C [4]: 109% | viability, T/C [5]: 85.3% | viability, T/C [6]: 93.2% | viability, T/C [7]: 95% | viability, T/C [8]: 110% | viability, T/C [9]: 97.8% | viability, T/C [10]: 95.4% | viability, T/C [11]: 99.6% | viability, T/C [12]: 82.3% | viability, T/C [13]: 100% | viability, T/C [14]: 114% | viability, T/C [15]: 101% | viability, T/C [16]: 92.8% | viability, T/C [17]: 96.3% | viability, T/C [18]: 85.3% | viability, T/C [19]: 105% | viability, T/C [20]: 99.2% | viability, T/C [21]: 98.5% | viability, T/C [22]: 112% | viability, T/C [23]: 86.7% | viability, T/C [24]: 77.5% | viability, T/C [25]: 108% | viability, T/C [26]: 113% | viability, T/C [27]: 114% | viability, T/C [28]: 98.6% | viability, T/C [29]: 88% | viability, T/C [30]: 81.8% | viability, T/C [31]: 103% | viability, T/C [32]: 107% | viability, T/C [33]: 108% | viability, T/C [34]: 107% | viability, T/C [35]: 113% | viability, T/C [36]: 97.8%
